Entries after “also recorded” stand apart in the source; their conditions may differ.
Legend:
[1] = tested on: Human multiple myeloma RPMI 8226 cells; assay: Proliferation of RPMI 8226 cells, live cell count by Trypan Blue exclusion; format: cell-based; details: RPMI 8226, 0.2 μM, 24 hours, read-out: cell proliferation, % of control
Method: Human multiple myeloma RPMI 8226 cells were purchased from American Type Culture Collection (ATCC; Manassas, Va.) and cultured according to ATCC specifications. […] The content of live cells was determined by excluding the Trypan Blue-stained cells. The cells were counted with TC20 Automated Cell Counter (Bio-Rad Laboratories, Hercules, Calif.) and EC50 was calculated with Origin Pro 2017 (OriginLab Corporation, Northampton, Mass.). When indicated, the cells were harvested, washed twice in PBS, resuspended in dilution buffer and stored in −80° C. To prepare crude lysates the thawed preparations were vortexed with glass beads and centrifuged for 5 min 5,000×g (4° C.). The supernate was centrifuged for 20 min 14,000×g. The resulting supernate was used as “crude lysate.” SDS-PAGE was carried in 12% acrylamide, Tris-glycine gels from Invitrogen. Chameleon Duo (Li-Cor) and Rainbow RPN800E (GE Healthcare) molecular weight standards were separated on each gel alongside lysates. The proteins were transferred to nitrocellulose membrane in a semi-dry system. The membranes were probed with specific primary antibodies from Life Technologies (S6, PS6) and Li-Cor (COX IV), and then with secondary antibodies from Li-Cor. In each experiment visualization of S6, PS6 and COX IV was performed on the same membrane with Odyssey Infrared Imaging System (Li-Cor).
The effects of compound 3 observed in vitro prompted its influence on the proliferation of cultured cancer cells to be tested, namely the multiple myeloma RPMI 8226 line. […] Such relatively low EC50, as compared to in vitro determined IC50 values for peptidase activities (2-3 μM; FIG. 3A and FIG. 3B) should come to no surprise. […] The in vitro readout of single peptidase activities is a useful and convenient measure of the catalytic prowess of proteasome. However, especially in the case of allosteric regulators, it may not fully reflect the important structural and functional effects.
Referring to FIG. […] The data are averages (±SD) of three-to-five independent experiments. […]

FKBP12 = biological target: T1, FKBP12 (Homo sapiens, UniProt P62942); assay: Suppression of rapamycin inhibition of S6 phosphorylation by competing for FKBP12; format: cell-based; details: RPMI 8226, 24 hours; FK506 10 μM, compound 3 and B1 0.2 μM, with rapamycin
T1 construct: endogenous in cells; host or cells: RPMI 8226 (ATCC)
Method: (§1) Human multiple myeloma RPMI 8226 cells were purchased from American Type Culture Collection (ATCC; Manassas, Va.) and cultured according to ATCC specifications. […] The content of live cells was determined by excluding the Trypan Blue-stained cells. The cells were counted with TC20 Automated Cell Counter (Bio-Rad Laboratories, Hercules, Calif.) and EC50 was calculated with Origin Pro 2017 (OriginLab Corporation, Northampton, Mass.). When indicated, the cells were harvested, washed twice in PBS, resuspended in dilution buffer and stored in −80° C. To prepare crude lysates the thawed preparations were vortexed with glass beads and centrifuged for 5 min 5,000×g (4° C.). The supernate was centrifuged for 20 min 14,000×g. The resulting supernate was used as “crude lysate.” SDS-PAGE was carried in 12% acrylamide, Tris-glycine gels from Invitrogen. Chameleon Duo (Li-Cor) and Rainbow RPN800E (GE Healthcare) molecular weight standards were separated on each gel alongside lysates. The proteins were transferred to nitrocellulose membrane in a semi-dry system. The membranes were probed with specific primary antibodies from Life Technologies (S6, PS6) and Li-Cor (COX IV), and then with secondary antibodies from Li-Cor. In each experiment visualization of S6, PS6 and COX IV was performed on the same membrane with Odyssey Infrared Imaging System (Li-Cor). […]

mTOR = biological target: T2, mTOR (Homo sapiens, UniProt P42345+P62942); assay: Western blot of S6 phosphorylation in RPMI 8226 cells; format: cell-based; details: RPMI 8226, 24 hours; rapamycin 2 nM, compound 3 and B1 0.2 μM
T2 construct: endogenous in cells; host or cells: RPMI 8226 (ATCC)
Method: as §1

26 S proteasome = biological target: T3, 26 S proteasome (Homo sapiens, UniProt P25787+P25789); assay: 26 S proteasome challenged with mixture of three substrates (surrogate proteinase assay); format: biochemical; details: mixture of ChT-L, T-L and Casp-L substrates, 33.3 μM each; read-out: IC50, 26 S proteasome with substrates for all three peptidases
T3 construct: purified from erythrocytes; purchased Enzo Life Sciences, Inc. (Farmingdale, N.Y.); host or cells: human erythrocytes
Method: (§2) Human housekeeping 20 S and 26 S and complexes purified from erythrocytes were purchased from Enzo Life Sciences, Inc. (Farmingdale, N.Y.). The 1 mg/ml stock 20 S proteasome was diluted to 0.2 mg/ml working solution in 50 mM Tris/HCl, pH 8 containing 20% glycerol (dilution buffer). For the 26 S proteasome stock, the dilution buffer was supplemented with 2 mM ATP, 1 mM MgCl2, and 1 mM DTT (dithiothreitol). The ChT-L peptidase activity was measured as arbitrary intensity units of fluorescence emitted by 7-amino-4-methylcoumarin (AMC) released from the canonical model peptide substrate succinyl-LeuLeuValTyr-methylcoumarin (SucLLVY-MCA; Bachem Bioscience Inc., Philadelphia, Pa.), used at concentration of 100 μM. Free AMC (Sigma-Aldrich, St. Louis, Mo.) was used as the standard. The Rpt5 C-terminal peptide was synthesized (standard solid-phase peptide chemistry) and purified to at least 98% purity by GenScript (Piscataway, N.J.). The Rpt5 peptide and the peptide substrate were dissolved in dimethylsulfoxide (DMSO) and such stock solutions were stored at −20° C. The total concentration of DMSO in final reaction mixtures never exceeded 3% (vol/vol).
The reaction was carried out in 96-well plates, in 100 μL of reaction mixture, for 1 hour at 37° C. In the case of 20 S proteasome, the reaction mixture consisted of 45 mM Tris/HCl, pH 8, 100 mM KCl with premixed 10 μM Rpt5 peptide and 100 μM Suc-LLVY-MCA, to which 200 ng (nearly […]) of proteasome and desired concentration of tested compounds in 1 μL of DMSO were added. […] The reaction rates were calculated from a linear segment of kinetic curves constructed from measurements in 1-minutes intervals (Fluoroskan Ascent plate reader; Thermo Fisher Scientific Inc., Waltham, Mass.). Reaction rates were calculated using a linear fit executed by Slope Analyzer and Enzyme Kinetics applications launched within Origin Pro 2017 (OriginLab). […]

[2] = biological target: T4, 20 S human housekeeping proteasome (Homo sapiens, UniProt P25787+P25789); assay: ChT-L peptidase activity of 20 S proteasome activated with Rpt5 peptide; format: biochemical; details: ChT-L, Suc-LLVY-AMC substrate, 20 S activated with Rpt5 peptide; read-out: IC50
T4 construct: purified from erythrocytes; purchased Enzo Life Sciences, Inc. (Farmingdale, N.Y.); host or cells: human erythrocytes
Method: as §2
The reaction was carried out in 96-well plates, in 100 μL of reaction mixture, for 1 hour at 37° C. In the case of 20 S proteasome, the reaction mixture consisted of 45 mM Tris/HCl, pH 8, 100 mM KCl with premixed 10 μM Rpt5 peptide and 100 μM Suc-LLVY-MCA, to which 200 ng (nearly […]) of proteasome and desired concentration of tested compounds in 1 μL of DMSO were added. To test the activity of 26 S proteasome under conditions challenging coordination of the three pairs of peptidase active centers, a mixture of three canonical substrates specific for the ChT-L (SucLLVY-MCA), trypsin-like (T-L; BocLRR-MCA) and caspase-like (Casp-L; Z-LLE-MCA) was used with each of the substrates at 33.3 μM (100 μM of the total substrate concentration). The reaction mixture in this case consisted of 50 mM Tris/HCl, pH 8, 20 mM NaCl, premixed with the substrates and 2 mM ATP, to which 200 ng (nearly 0.1 nmol) of the 26 S working solution and desired concentration of tested compounds in 0.5 μL of DMSO were added. The reaction rates were calculated from a linear segment of kinetic curves constructed from measurements in 1-minutes intervals (Fluoroskan Ascent plate reader; Thermo Fisher Scientific Inc., Waltham, Mass.). Reaction rates were calculated using a linear fit executed by Slope Analyzer and Enzyme Kinetics applications launched within Origin Pro 2017 (OriginLab). Specific activity of the control 20 S proteasome activated with the Rpt5 peptide was in the range of 1.4 to 2.3 nanomoles of AMC product released by 1 mg of 20 S per second (1.95±0.24; n=18). Specific activity of the control 26 S proteasome challenged with three substrates reached on average 0.28±0.06 nanomoles of AMC product released by 1 mg of the enzyme per second (n=6). For comparison, degradation of the canonical Suc-LLVY-MCA substrate by the control 26 S proteasome preceded with a rate in the range of 0.6-0.8 nanomoles of AMC released per mg of the enzyme per second. The data are presented as mean±SD or as a representative set from at least 3 independent experiments.
The compounds were evaluated using the 20 S human housekeeping proteasome. It was activated with the Rpt5 derived 10-residue peptide that contains the C-terminal HbYX (hydrophobic-Tyr-any AA) motif activating the proteasome in trans and to some extend mimic the activation by the 19 S regulatory particle (Osmulski and Gaczynska (2013) Molecular pharmacology 84: 104-113; Smith et al. (2006) J. Struct. Biol. 156: 72-83; Smith et al. (2007) Mol. Cell 27: 731-744). Proteolytic activity was monitored over time using a fluorogenic peptide substrate specific for the chymotrypsin-like active center (ChT-L, Suc-LLVY-AMC) in the presence of a concentration range of the inhibitors. […]

[3] = biological target: T5, native human 20 S core proteasome (Homo sapiens, UniProt P25787+P25789); details: literature; cited from earlier work
T5 construct: purified from erythrocytes; purchased Enzo Life Sciences, Inc. (Farmingdale, N.Y.); host or cells: human erythrocytes

T1 sequence (P62942 whole entry): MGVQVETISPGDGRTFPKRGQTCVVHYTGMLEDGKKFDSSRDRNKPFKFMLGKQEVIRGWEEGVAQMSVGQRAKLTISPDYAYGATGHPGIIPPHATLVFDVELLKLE

| suppression of rapamycin inhibition of S6 phosphorylation (FKBP12 binding) (FKBP12) | IC50 (26 S proteasome) [µM] | IC50 [2] [µM] | SMILES | activity at 0.2 µM [1] [%] | activity of mTOR (phosphorylation of S6) (mTOR) | contribution of closed forms in 20 S particles population [3] |
| --- | --- | --- | --- | --- | --- | --- |
| did not mimic the actions of FK506 | 4.6 | 5.8 | COc1cc(CCCOC(=O)[C@@H]2CCCCN2C(=O)C(=O)C2CCCCC2)cc(OC)c1OC (racemic) [Compound B1] | 60 to 65 | neither B1 nor compound 3 affected the activity of mTOR; also recorded: did not inhibit the S6 phosphorylation | – |
| – | – | – | CCOC(=O)[C@]1(c2ccccc2)N=C(c2ccc(OC)cc2)N(Cc2ccccc2)[C@@H]1c1ccc(NCc2ccccc2)cc1 [TCH-165] | – | – | induced a strong decrease in contribution of the closed forms |
